From ChEMBL document CHEMBL3621115, “Discovery of 6-phenylimidazo[2,1-b]thiazole derivatives as a new type of FLT3 inhibitors” (Bioorg Med Chem Lett, 2015)

Tests used:
[1] = tested on: MV4-11; assay: Cytotoxicity against human MV4-11 cells assessed as cell viability after 72 hrs by MTT assay; type: functional, cell-based; details: MV4-11, 72 h
[2] = tested on: HeLa; assay: Cytotoxicity against human HeLa cells assessed as cell viability after 72 hrs by MTT assay; type: functional, cell-based
[3] = molecular target: T1, Receptor-type tyrosine-protein kinase FLT3 (Homo sapiens, UniProt P36888); assay: Inhibition of human recombinant Flt3
T1 sequence (P36888 whole entry): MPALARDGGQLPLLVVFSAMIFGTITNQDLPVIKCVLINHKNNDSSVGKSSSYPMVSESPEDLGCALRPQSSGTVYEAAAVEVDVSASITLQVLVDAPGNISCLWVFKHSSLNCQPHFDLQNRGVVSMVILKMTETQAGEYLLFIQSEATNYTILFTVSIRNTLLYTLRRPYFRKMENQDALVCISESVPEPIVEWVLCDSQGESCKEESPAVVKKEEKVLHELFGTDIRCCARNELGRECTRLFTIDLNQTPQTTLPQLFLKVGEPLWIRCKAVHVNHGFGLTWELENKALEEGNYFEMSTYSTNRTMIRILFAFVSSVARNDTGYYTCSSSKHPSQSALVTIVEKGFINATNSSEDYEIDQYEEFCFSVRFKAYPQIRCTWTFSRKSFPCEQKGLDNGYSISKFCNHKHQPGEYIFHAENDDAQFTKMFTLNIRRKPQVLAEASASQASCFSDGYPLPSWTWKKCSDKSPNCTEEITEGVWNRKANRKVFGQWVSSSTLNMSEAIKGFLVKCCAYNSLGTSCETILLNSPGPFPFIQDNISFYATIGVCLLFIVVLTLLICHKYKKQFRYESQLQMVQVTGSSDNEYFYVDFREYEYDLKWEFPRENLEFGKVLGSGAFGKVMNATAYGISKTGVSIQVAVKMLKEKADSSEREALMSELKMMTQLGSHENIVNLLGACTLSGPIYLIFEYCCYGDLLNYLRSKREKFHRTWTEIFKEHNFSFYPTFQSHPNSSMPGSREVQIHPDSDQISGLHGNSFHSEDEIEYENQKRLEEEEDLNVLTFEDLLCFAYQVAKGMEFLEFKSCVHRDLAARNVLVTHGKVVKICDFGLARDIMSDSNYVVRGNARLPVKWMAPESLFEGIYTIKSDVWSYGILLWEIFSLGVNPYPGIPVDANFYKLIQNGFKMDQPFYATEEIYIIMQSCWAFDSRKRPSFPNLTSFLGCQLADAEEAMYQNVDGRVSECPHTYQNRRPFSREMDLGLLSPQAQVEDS

SMILES | IC50 [1] [µM] | IC50 [2] [µM] | IC50 [3] [µM]
C=CC(=O)Nc1ccc(-c2cn3c(C(=O)OCC)csc3n2)cc1 | 2.93 | > 20 | –
CCOC(=O)c1csc2nc(-c3cccc(NC(=O)CCl)c3)cn12 | 17.7 | 20 | –
CCOC(=O)c1csc2nc(-c3cccc(NC(=O)CC)c3)cn12 | > 20 | > 20 | –
CC(C)(C)c1cc(NC(=O)Nc2ccc(-c3cn4c(C(=O)NCCN5CCOCC5)csc4n3)cc2)no1 | 0.0163 | > 20 | –
CCOC(=O)c1csc2nc(-c3cccc(NC(=O)c4ccco4)c3)cn12 | > 20 | > 20 | –
CC(C)(C)c1cc(NC(=O)Nc2ccc(-c3cn4c(C(=O)NCCO)csc4n3)cc2)no1 | 0.0156 | > 20 | –
C=CC(=O)Nc1cccc(-c2cn3c(C(=O)OCC)csc3n2)c1 | > 20 | > 20 | –
CCOC(=O)c1csc2nc(-c3ccc(NC(=O)c4ccco4)cc3)cn12 | 9.92 | > 20 | –
CCOC(=O)c1csc2nc(-c3ccc(NC(=O)Nc4ccc(Br)cn4)cc3)cn12 | 2.44 | > 20 | –
CCOC(=O)c1csc2nc(-c3ccc(NC(=O)Nc4cc(C(C)(C)C)on4)cc3)cn12 | 0.274 | > 20 | –
CCOC(=O)c1csc2nc(-c3ccc(NC(=O)Nc4ccccc4)cc3)cn12 | > 20 | > 20 | –
CCOC(=O)c1csc2nc(-c3ccc(NS(=O)(=O)c4ccc(C)cc4)cc3)cn12 | > 20 | > 20 | –
CN(C)CCNC(=O)c1csc2nc(-c3ccc(NC(=O)Nc4cc(C(C)(C)C)on4)cc3)cn12 | 0.0097 | 20 | 0.022
CCCS(=O)(=O)Nc1ccc(-c2cn3c(C(=O)OCC)csc3n2)cc1 | > 20 | > 20 | –
CC(C)(C)c1cc(NC(=O)Nc2ccc(-c3cn4c(C(=O)OCCN5CCOCC5)csc4n3)cc2)no1 | 0.146 | > 20 | –
CC(C)(C)c1cc(NC(=O)Nc2ccc(-c3cn4c(C(=O)NCCS(C)(=O)=O)csc4n3)cc2)no1 | 0.0049 | > 20 | 0.095
CCOC(=O)c1csc2nc(-c3ccc(NC(=O)CCl)cc3)cn12 | 9.07 | > 20 | –
CNC(=O)c1cc(Oc2ccc(NC(=O)Nc3ccc(Cl)c(C(F)(F)F)c3)cc2)ccn1 [SORAFENIB] | 0.007 | 5.23 | –
CCOC(=O)c1csc2nc(-c3ccc(NC(=O)CC)cc3)cn12 | 9.52 | > 20 | –
